Data reported in US10034913B2, “Anti-angiogenic peptides and uses thereof” (Health Research, Inc., priority 2011, dated 2018).
Bridges are numbered along the chain shown (N, C = ends). Where no end group is shown, it is not given here.

Assays:
[1] = test system: HUVEC; assay: Matrigel endothelial tube formation assay; format: cell-based, human; details: for reproducible anti-angiogenic activity: tested at 10 and 100 μM; for anti-angiogenic activity, inhibition of tube formation by HUVEC in Matrigel: 10 uM, 18 hr, FIGS. 14, 19, 20; for inhibitory activity on endothelial tube formation: equi-molar concentrations of f-PSA and T-PSA
Excerpt: The 3-D model of human PSA, the amino acid sequence of the initial five candidate peptides, and their color-coded location on the exterior of the PSA protein molecule in aqueous solution, are presented in FIG. 8. Five PSA-mimetic peptides with >90% purity were acquired from GeneScript Corporation, Piscataway, N.J., and tested for anti-angiogenic activity against HUVECs in the Matrigel tube formation assay with intact PSA as the control (FIGS. 9 &10). Briefly, to perform these assays, 10^4 HUVEC cells are mixed with the PSA mimetic peptide, and, the mixture placed on top of a solidified, pre-poured Matrigel layer in a flat bottomed well of a multi-chambered plate, and the culture incubated for 16-18 hr to allow time for the endothelial cells to migrate and form tubular structures. At the conclusion of the incubation, digital images were made from the center of each culture to avoid bias, and 3-4 wells for each test condition were imaged. The images are processed under the Analyze 7.0 and “Angioquant” software packages, for imaging and quantification. The total length of tubular structures in the image is determined, and averaged over the replicate cultures. This method of quantification allows for accurate, unbiased measurement of tube lengths. Peptides having each of the peptide sequences shown in FIG. 8 are encompassed within the scope of the invention, including all modifications and substitutions to the sequences as described supra.
The experimental endpoint, measured by digital image analysis, is the total area of the image comprised of endothelial cells (tubes). […] While the reason for the decrease in the amount of anti-angiogenic activity in this figure when the concentration of the peptides is increased from 10 to 100 μM is not clear, it may be related to a dosing response observed in this case. […] FIG. 10 presents the evaluation of anti-angiogenic activity for peptides #1 and #3 relative to the level of inhibition by native PSA, averaged over multiple experiments with different parental populations of HUVEC cells. Across multiple sets of experiments, both peptides inhibited the angiogenic activity of HUVEC by 35-40% relative to native PSA.
FIG. 13 is a graphical representation of data showing anti-angiogenic activity of f-PSA, PSA-P3L, and PSA-P3C by inhibiting tube formation by HUVEC in a Matrigel assay. To produce the results summarized in FIG. 13, a 24-well tissue culture plate was coated with 200 ul/well of Matrigel and incubated for 30 min at 37 C. Approximately 80,000 HUVEC in 0.5 ml of media supplemented with f-PSA or PSA-P3L, PSA-P3C was applied on top of the Matrigel layer and cells were incubated for 18 hr at 37 C foe endothelial cell tube formation. Live cell images (4× magnification) were taken using Nikon Eclipse TE300 inverted microscope system and analyzed using Spot Advance software program. Five images were taken/well. The images were processed further using Analyze 7.0 (AnalyzeDirect, Inc., Overland Park, Kans.) and Angioquant v1.33 to obtain the average tube length for each image. Percent inhibition is expressed in relation to tube length in untreated control cells.

[2] = target: T1, Mu-His-Ser-Ser-Lys-Leu-Gln—AFC (Homo sapiens, UniProt P07288); assay: Enzymatic activity of isolated PSA, hydrolysis of fluorogenic substrate; format: biochemical; details: for enzymatic activity in the assay: fluorogenic substrate hydrolysis
T1 construct: The 237 amino acid protein (25-261) were used in the studies that include PSA as described herein; from tissue; host or cells: human seminal plasma (f-PSA); human prostate cancer tissue specimens (T-PSA)
T1 sequence (P07288 25-261): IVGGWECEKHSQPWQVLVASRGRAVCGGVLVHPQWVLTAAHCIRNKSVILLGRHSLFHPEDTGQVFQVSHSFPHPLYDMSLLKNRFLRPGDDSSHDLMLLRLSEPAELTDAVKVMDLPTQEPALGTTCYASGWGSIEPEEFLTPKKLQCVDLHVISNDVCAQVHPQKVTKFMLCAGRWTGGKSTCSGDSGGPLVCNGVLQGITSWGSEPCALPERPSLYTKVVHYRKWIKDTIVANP
Description: In particular, enzymatic activity of PSA isolated from human seminal plasma (f-PSA) and from human prostate cancer tissue specimens (Tissue-PSA: T-PSA) was evaluated routinely using a substrate (Mu-His-Ser-Ser-Lys-Leu-Gln—AFC) (SEQ ID NO:102) (Calbiochem) that is highly specific for PSA. […] PSA in the tissue microenvironment (T-PSA) is largely free and enzymatically active. T-PSA levels are lower in advanced prostate cancer than benign prostate, and T-PSA levels correlate with prognosis in prostate cancer, as well as in breast cancer; the higher the T-PSA level, the better the prognosis.
(§1) Hydrolysis of the fluorogenic substrate was quantitated using a LS-45 Luminescence Spectrometer from Perkin Elmer) using the FL-Winlab® program. Human prostate cancer tissue specimens were obtained from the Pathology Resource Network at Roswell Park Cancer Institute under an IRB approved protocol.

[3] = test system: PC-3M cells; assay: Gene expression array and QPCR analysis of PC-3M cells treated with PSA; format: cell-based, human
Excerpt: (§2) PSA purified to homogeneity from human seminal plasma is enzymatically active, and free of contaminating hk2, and complexes with carrier proteins/chaperones (Bindukumar, B., et al., J Chromatogr B Analyt Technol Biomed Life Sci, 2004. 813(1-2): p. 113-20).

[4] = test system: HUVEC cells; assay: Expression of angiogenesis/vasculogenesis genes in HUVEC, enzymatically active vs inactive PSA; format: cell-based, human
Description: (§3) Enzymatically active PSA, and PSA inactivated by incubation with Zinc^2+ [activity inhibited>75% by 5.0 μM of Zinc, inset FIG. 4] were compared for their respective effects on expression of genes involved in angiogenesis/vasculogenesis in HUVEC cells.

[5] = test system: PC-3M cells; assay: Proteomic profiling (2D-DIGE, HPLC-MS/MS) of PC-3M cells treated with PSA; format: cell-based, human; details: PSA treatment
Excerpt: This Example provides an illustration of proteomic profiling of the effect of PSA on human prostate cancer cells. In this regard, a proteomic approach was employed to identify proteins whose expression was modulated in PC-3M cells treated with PSA. […] Proteins from 26 gel spots were identified [FIG. 2]. […] Specificity of PSA modulation of differential expression of these genes in PC-3M cells was validated at the gene level by RT-QPCR [FIG. 3].

[6] = test system: PC-3M xenografts; assay: Growth of PC-3M xenografts in nude mice; format: in vivo; details: PSA administered in the tumor vicinity; control animals 267 mm^3
Excerpt: as §2

[7] = test system: PC-3M cells; details: cited from earlier work
[8] = test system: FAK gene expression in HUVEC; assay: FAK gene expression in HUVEC, Real-time QPCR; format: cell-based, human; details: 10 uM, average of three experiments
Description: FIG. 16 is a graphical representation of data showing modulation of FAK gene expression in HUVEC by f-PSA and PSA-P3L. To produce the results summarized in FIG. 16, nearly confluent monolayers of HUVEC were treated with 10 uM of f-PSA or PSA-P3L; RNA extracted and reverse transcribed. The c-DNA was amplified by Real-time QPCR using specific primers. The results shown are the average of three experiments. […] The other experimental details are similar to all gene expression studies. Thus, in one embodiment, the invention provides a method for inhibiting FAK gene expression in human endothelial cells comprising contacting the cells with one or more peptides of the invention.

[9] = test system: VEGF gene expression in HUVEC; assay: VEGF gene expression in HUVEC, Real-time QPCR; format: cell-based, human; details: 10 uM, average of three experiments
Description: FIG. 17 is a graphical representation of data showing modulation of VEGF gene expression in HUVEC by f-PSA, PSA-P3L and PSA-P3C. To produce the results summarized in FIG. 17, nearly confluent monolayers of HUVEC were treated with 10 uM of f-PSA or PSA-P3L; RNA extracted and reverse transcribed. The c-DNA was amplified by Real-time QPCR using specific primers. The results shown are average of three experiments. […] The data represents an average of three experiments. […] Thus, in one embodiment, the invention provides a method for inhibiting VEGF expression in human endothelial cells comprising contacting the cells with one or more peptides of the invention.

[10] = test system: ANG2 gene expression in HUVEC; assay: ANG2 gene expression in HUVEC, Real-time QPCR; format: cell-based, human; details: 10 uM, average of three experiments
Description: FIG. 18 is a graphical representation of data showing modulation of ANG2 gene expression in HUVEC by f-PSA, PSA-P31 and PSA-P3C. To produce the results summarized in FIG. 18, nearly confluent monolayers of HUVEC were treated with 10 uM of f-PSA, PSA-P3L or PSA-P3C; RNA extracted and reverse transcribed. The c-DNA was amplified by Real-time QPCR using specific primer. The results shown are an average of three experiments. […] Accordingly, in one embodiment, the invention provides a method for inhibiting ANG2 expression in human endothelial cells comprising contacting the cells with one or more peptides of the invention.

[11] = test system: FLT1 gene expression in HUVEC; assay: FLT1 gene expression in HUVEC, Real-time QPCR; format: cell-based, human; details: 10 uM, average of three experiments
Description: FIG. 15 is a graphical representation of data showing modulation of FLT1 gene expression in HUVEC by f-PSA and PSA-P31. […] To obtain the data summarized in this figure, nearly confluent monolayers of HUVEC were treated with 10 uM of f-PSA or PSA-P3L; RNA extracted and reverse transcribed. The c-DNA was amplified by Real-time QPCR using specific primer. The results shown are average of three experiments.

[12] = target: T2, PSA (Homo sapiens, UniProt P07288); assay: Inhibition of PSA enzymatic activity by zinc; format: biochemical
T2 construct: The 237 amino acid protein (25-261) were used in the studies that include PSA as described herein; from tissue; host or cells: human seminal plasma (f-PSA); human prostate cancer tissue specimens (T-PSA)
T2 sequence (P07288 25-261): as above
Description: as §1, §3

[13] = PC-3M cells versus LNCaP cells treated with 10 μM PSA

## GRWTGGKSTCS [Peptide #4]
[1]
  reproducible anti-angiogenic activity: did not demonstrate reproducible anti-angiogenic activity

## KNRFLRPGDDSSH [Peptide #1, amino acids 107-119 of PSA]
[1]
  anti-angiogenic activity, inhibition of tube formation by HUVEC in Matrigel: significantly inhibit
[1]; 100 μM, FIG. 9
  inhibition of tubule formation: maximal inhibition

## T-PSA: PSA isolated from human prostate cancer tissue specimens
[2]
  enzymatic activity in the assay: demonstrated enzymatic activity
[2]; per microgram of protein
  enzymatic activity relative to f-PSA from seminal plasma: roughly 50%
[1]
  inhibitory activity on endothelial tube formation: equivalent inhibitory activity

## SEPCALPERPS [Peptide #5]
[1]
  reproducible anti-angiogenic activity: did not demonstrate reproducible anti-angiogenic activity

## PSA-ACT Complex: f-PSA complexed with serine protease inhibitor alpha 1 anti-chymotrypsin (ACT)
[1]
  anti-angiogenic activity, inhibition of tube formation by HUVEC in Matrigel: significant loss of anti-angiogenic activity
[1]; listed as PSA-ACT complexes
  anti-angiogenic activity, inhibition of tube formation by HUVEC in Matrigel: significantly reduced

## f-PSA: PSA isolated from human seminal plasma, free and enzymatically active; 237 amino acid protein (residues 25-261)
[3]; [13]
  genes down-regulated (gene expression array): 137
  genes up-regulated (gene expression array): 136
[3]; PC-3M cells, 10 μM PSA
  expression of IFN-γ and interferon related genes incl. 2,5 oligo-adenylated synthetase-2 (QPCR): up-regulated
  expression of uPA, VEGF, cysteine-rich angiogenic inducer-61, EphA2, TGF-β2 (QPCR): significantly down-regulated
[4]
  expression of blood vessel development genes FAK, FLT, KDR, TWIST1, Cathepsin D and P-38: equally effective
  negative modulation of expression of pro-angiogenic growth factors bFGF and VEGF: equally effective
  positive modulation of expression of IFN-γ: equally effective
[5]
  proteins significantly changed (p<0.05) in abundance: 41
[2]
  enzymatic activity in the assay: demonstrated enzymatic activity
[1]
  anti-angiogenic activity, inhibition of tube formation by HUVEC in Matrigel: significant anti-angiogenic activity
  inhibitory activity on endothelial tube formation: equivalent inhibitory activity
[1]; listed as PSA
  anti-angiogenic activity, inhibition of tube formation by HUVEC in Matrigel: significantly inhibit
[6]
  mean tumor volume: 13 mm^3
[7]
  effect on VEGF and IFN-γ gene expression and protein release: distinctly dose dependent
[8]
  FAK gene expression: significantly down-regulates
[9]
  VEGF gene expression: significantly down-regulate
[10]
  ANG2 gene expression: significantly inhibited
[11]
  FLT1 gene expression: effectively inhibit

## [Cl-].[Cl-].[Zn+2] [zinc chloride]
[12]; 5.0 μM of Zinc
  PSA activity inhibited: > 75%
[12]; pre-incubation with zinc chloride 5 μM
  inhibition of enzymatic activity of f-PSA and T-PSA: inhibited completely

## Asn Asp Val Cys Ala Gln Val His Pro Gln Lys Val Thr Lys Phe Met Leu Cys Ala (Ac-NDVCAQVHPQKVTKFMLCA-NH2; disulfide 4-18 (inferred)) [PSA-P3C]
[1]; at certain concentrations, FIG. 11
  inhibition of HUVEC tube formation, cyclic versus linear peptide: even more efficiently than linear peptide
[8]
  FAK gene expression: significantly down-regulates
[9]
  VEGF gene expression: significantly down-regulate
[10]
  ANG2 gene expression: significantly inhibited

## GWGSIEPEEFLTPKKLQ [Peptide #2]
[1]
  reproducible anti-angiogenic activity: did not demonstrate reproducible anti-angiogenic activity

## NDVAAQVHPQKVTKFMLAA [PSA-P3L]
[1]
  anti-angiogenic activity, inhibition of tube formation by HUVEC in Matrigel: significantly inhibit
[8]
  FAK gene expression: not significantly different
[9]
  VEGF gene expression: not significantly different from control
[10]
  ANG2 gene expression: not significantly different from control
[11]
  FLT1 gene expression: effectively inhibit

## PSA inactivated by incubation with Zinc^2+: PSA enzymatically inactivated by incubation with Zinc2+ (5.0 μM)
[4]
  expression of blood vessel development genes FAK, FLT, KDR, TWIST1, Cathepsin D and P-38: equally effective
  negative modulation of expression of pro-angiogenic growth factors bFGF and VEGF: equally effective
  positive modulation of expression of IFN-γ: equally effective
[1]; over the entire range of PSA concentrations studied
  inhibition of tube formation compared with native PSA: as inhibitory of tube formation as was native PSA
